Reference: patent publication US8729047B2, “Compositions for inhibiting redox-sensitive GTPases” (Board of Regents, The University of Texas System, priority 2010, dated 2014)
Like-named read-outs stand apart in the source and are kept apart here.

Legend:
SUM149 cells = experiment: MTT cell viability and caspase-3/8 assays; type: cell-based, human
Text: FIG. 25. […] (B) Caspase-3/8 assay: the apoptotic activity of sample cells treated with the apoptotic inducer was set to be 100%, and other results were then expressed as normalized values against the mean value associated with the treatment with the apoptotic inducer. For both (A) and (B), all values represent the mean values and standard error values from triplicate measurements.

Rho GTPases = experiment: Binding of 6-TGDP compared with GDP (Example 2); details: Example 2, FIG. 13 values
Method: The true dissociation constant (^trueKD 6-TGDP) of Ras, RhoC, RhoA and Rac1 for 6-TGDP was then calculated to be ˜20.7 pM, 212 μM, 208 μM, and 158 μM [6-TGDP] by using a compensation equation, ^trueKD 6-TGDP=^appKD 6-TGDP/(1+[GDP]/^trueKD GDP) (95), in conjunction with the values given [(^appKD 6-TGDP of Ras, RhoC, RhoA, and Rac1=2300, 230, 224, and 245 μM (FIG. 13) and ^trueKD GDP=9 pM, 12 μM, 13 μM and 1.8 μM, respectively. The ^trueKD GDP of Ras, RhoA and Rac1 was determined previously (Lenzen et al. Biochemistry 37, 7420-7430 (1998); Heo et al. Biochemistry 44, 6573-6585 (2005)) and the ^trueKD GDP of RhoC was further determined. Example: ^trueKD 6-TGDP for Ras=2300 μM/(1+1 μM GDP/[…])=[…] [6-TGDP]].

C20S RhoC = target: T1, C20S RhoC (Homo sapiens, UniProt P08134, C20S); experiment: Titration of .NO2-treated RhoC-6-TGDP complex with [3H]GDP with/without DTT (FIG. 16D); type: binding; details: .NO2-treated 6-TGDP C20S RhoC complex, read-out: appKD for [3H]GDP
T1 construct: made in house; host or cells: E. coli
Method: (§1) FIG. 16. Kinetic properties of RhoC with 6-TGDP in the presence or absence of a redox agent. All kinetic analyses are described elsewhere herein. (A) ^appKD values of Rac1, RhoA, RhoC, and RhoC C20S for 6-TGDP were estimated to be 7.9, 11.6, 11.8, and 11.2 μM, respectively. ^trueKD values of Rac1, RhoA, and RhoC for 6-TGDP were then calculated to be 5.1, 10.8, 11.1, and 10.5 μM, respectively, by using a compensation equation, ^trueKD for 6-TGDP=^appKD for 6-TGDP/(1+[[^3H]GDP]/^trueKD for GDP) (Heo, J., and Hong, I. (2010) Biochemistry 49, 3965-3976), in conjunction with the values given. […] The GDP dissociation rates from RhoC C20S by NO, .NO2, and N2O3 were estimated to be 0.02×10^−3, 0.05×10^−3, and 0.04×10^−3 s^−1, respectively. […] (D) ^appKD values of RhoC for [^3H]GDP in the presence or absence of DTT were estimated to be 22.4 μM and […], respectively. ^appKD values of C20S RhoC for [^3H]GDP in the presence or absence of DTT were determined to be 24.8 μM and 25.2 μM, respectively. The regression values associated with these fits were >0.8595. […]
(§2) (d) The effect of .NO2 on the dissociation of 6-TGDP from RhoC was determined by treating the RhoC-6-TGDP complex titration with various concentrations of [^3H]GDP in the presence and absence of a reducing agent of either dithiothreitol (DTT) or β-mercaptoethanol. […]

RhoC = RhoC (Homo sapiens, UniProt P08134); experiment: as above; type: binding; set-up: made in house; host or cells: E. coli; details: presence of DTT; .NO2-pretreated 6-TGDP-loaded RhoC; read-out: appKD for [3H]GDP
Method: as §1, §2

T1 sequence (P08134 whole entry C20S): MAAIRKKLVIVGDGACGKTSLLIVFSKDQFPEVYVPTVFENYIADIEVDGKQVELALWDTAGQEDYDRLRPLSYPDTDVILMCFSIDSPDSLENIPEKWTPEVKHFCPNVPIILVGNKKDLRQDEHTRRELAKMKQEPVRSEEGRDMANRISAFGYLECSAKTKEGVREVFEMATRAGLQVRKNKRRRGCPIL
Chain of RhoC (P08134 whole entry): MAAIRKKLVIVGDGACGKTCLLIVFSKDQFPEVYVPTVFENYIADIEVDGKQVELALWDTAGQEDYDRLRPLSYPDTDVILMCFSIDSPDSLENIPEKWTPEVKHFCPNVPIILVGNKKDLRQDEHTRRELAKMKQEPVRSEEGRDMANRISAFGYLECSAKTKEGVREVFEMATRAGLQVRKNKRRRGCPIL

Question: With `Nc1nc2nc[nH]c2c(=S)[nH]1` [6-TG, 6-thioguanine] as the compound, how does the “apoptotic effect (caspase, FIG. 25B)” value (SUM149 cells; 6-TG) read?
Answer: minimal

Question: And the “viability and caspase activity” value (SUM149 cells; 6-TG and DETA/NO, FIG. 25)?
Answer: minimally affected

Question: What about the “cell viability (MTT, FIG. 25A)” value (SUM149 cells; 6-TG for 3 days) of the same compound?
Answer: minimally affected

Question: `Nc1nc2c(ncn2[C@@H]2O[C@H](COP(=O)(O)OP(=O)(O)O)[C@@H](O)[C@H]2O)c(=S)[nH]1` [6-TGDP, 6-thioguanosine diphosphate] was tested. Which “binding interaction with 6-TGDP weaker than with GDP” value (Rho GTPases) did it give?
Answer: ~15 fold

Question: What does the source list for `Nc1nc2c(ncn2[C@@H]2O[C@H](COP(=O)(O)OP(=O)(O)O)[C@@H](O)[C@H]2O)c(=O)[nH]1` [GDP]?
Answer: Kd (C20S RhoC; absence of DTT): 25.2 µM; Kd (C20S RhoC; presence of DTT): 24.8 µM; Kd (RhoC): 22.4 µM
